Source: article PMC9788431, “Combination of Docking-Based and Pharmacophore-Based Virtual Screening Identifies Novel Agonists That Target the Urotensin Receptor” (Molecules, 2022)
Entries after “also recorded” stand apart in the source; their conditions may differ. Each block holds one molecule with its values, some of them ahead of it.

Assays:
UT receptor [1] = target: T1, UT receptor (Homo sapiens, UniProt Q9UKP6); set-up: method as in ChEMBL database and others; conditions: antagonist; Table S1 benchmarking ligands; ref ChEMBL database and others; cited from earlier work
T1 construct: SNAP-tag; expressed in transfected cells; host or cells: 293A8 (HEK293A stably transfected with the UT receptor); inferred, the calcium-assay paragraph names no cells
T1 sequence (Q9UKP6 1-389): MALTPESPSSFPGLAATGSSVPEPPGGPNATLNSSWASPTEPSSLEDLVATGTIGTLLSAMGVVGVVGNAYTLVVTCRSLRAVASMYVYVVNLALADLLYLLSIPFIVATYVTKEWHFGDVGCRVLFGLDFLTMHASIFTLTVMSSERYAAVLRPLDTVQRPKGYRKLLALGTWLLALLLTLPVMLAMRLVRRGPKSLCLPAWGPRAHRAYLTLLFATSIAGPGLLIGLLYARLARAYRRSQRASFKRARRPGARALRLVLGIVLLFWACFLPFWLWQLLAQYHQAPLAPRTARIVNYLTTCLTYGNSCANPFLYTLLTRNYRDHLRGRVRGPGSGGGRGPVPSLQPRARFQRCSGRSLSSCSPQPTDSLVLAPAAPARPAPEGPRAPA

UT receptor [2] = target: T1, UT receptor; test: luciferase β-arrestin recruitment-based assay; format: cell-based
Procedure: (§1) HTLA cells (a HEK293 cell line stably expressing a tTA-dependent luciferase reporter and a β-arrestin2-TEV fusion gene) were a gift from the laboratory of R. Axel (he has given us permission to distribute them) and are maintained in DMEM supplemented with 10% FBS, 100 U/mL penicillin and 100 μg/mL streptomycin, 2 μg/mL puromycin and 100 μg/mL hygromycin B. HepG2 cells (C5 passage, human hepatoma cell line) were purchased from the National Platform of Experimental Cell Resources for Sci-Tech, Chinese Academy of Medical Sciences (Beijing, China), and 293A8 cells were the cell line HEK293A stably transfected with the UT receptor in our laboratory. HepG2 and 293A8 cells were grown in high glucose (25 mmol/L) Dulbecco’s modified Eagle’s medium (DMEM, Gibco, CA, USA) supplemented with 10% fetal bovine serum (FBS, Gibco, CA, USA), 100 U/mL penicillin and 100 µg/mL streptomycin solution (Solarbio, Beijing, China). Cells were cultured in a standard humidified incubator at 37 °C under a 5% CO2 atmosphere. The media were changed every 2 days. Subcultures were performed at a ratio of 1:3 when cells were approximately 75–85% confluent.
The β-arrestin recruitment-based experiments were performed according to previous reports with slight modifications. In brief, the UT receptor plasmid was transfected into HTLA cells with the transfection reagent PEI when the cell confluence reached approximately 80%. Transfected cells were seeded in 96-well plates at a density of 1.5 × 10^5 cells/well. After 24 h, the cells were treated with compounds diluted to the specified concentration using 10% FBS DMEM. Following the next 24 h incubation with compounds, the medium was removed and Bright-GloTM (Promega, Madison, WI, USA) reagent was added immediately. Then, the activity of firefly luciferase luminescence (RLUF) was measured using a SpectraMax M5 microplate reader (Molecular devices, LLC., San Jose, CA, USA).

UT receptor [3] = target: T1, UT receptor; test: intracellular calcium mobilization (Fluo-8 calcium assay); format: cell-based; conditions: for agonist behaviour in calcium assay: in words
Procedure: as §1
Measurement of intracellular calcium mobilization was performed using Fluo-8 Calcium Assay Kit (Applygen, Beijing, China) following the manufacturer’s instructions.

HepG2 cells [4] = test: glucose consumption; format: cell-based, human
Procedure: as §1
(§2) Glucose consumption detection was performed as described previously. In brief, HepG2 cells in 96-well plates at a density of 8000 cells/well were treated with compounds at 37 °C, and 5% CO2. After the indicated duration, the media from cultured cells were taken for glucose and lactic acid detection. The glucose levels were detected by a blood-glucose kit from Biosino Biotechnology (Beijing, China). The amount of glucose consumption was calculated by subtracting the initial glucose level from the remaining glucose in the wells. The lactate content was measured using the lactic acid assay kit (Nanjing Jiancheng Bioengineering Institute, Nanjing, China) according to the manufacturer’s instructions.

HepG2 cells [5] = test: lactic acid release; format: cell-based, human
Procedure: as §1, §2

HepG2 cells [6] = test: cell viability (CCK-8); format: cell-based, human; conditions: 24 h
Procedure: as §1
Cell viability was detected by Cell Counting Kit-8 (CCK-8) per the instructions of the technical manual (Dojindo, Kumamoto, Japan). In brief, the cells were seeded in a 96-well plate and incubated overnight in the cell culture incubator. After the cells were treated with compounds for a certain period, the CCK-8 test solution was added at 1/10 of the total volume. Then, the plates were incubated in the incubator for 2 h, and the absorbance at 450 nm was measured using a SpectraMax M5 microplate reader (Molecular Devices, LLC, San Jose, CA, USA).

[7] = chronic administration, cited from earlier work
[8] = set-up: method as in PMID 19696412; conditions: cited from earlier work
[9] = HTLA cells transfected with UT receptor plasmid
[10] = HTLA cells transfected with UT receptor plasmid, 24 h incubation, read-out: β-arrestin recruitment-based assay EC50
[11] = intracellular calcium mobilization
[12] = intracellular calcium mobilization, fluorescence-based, read-out: Calcium assay EC50

SMILES: COc1ccccc1-c1ccc2cc(C(=O)NC3CCN(Cc4ccc(OC5CCNCC5)c(Br)c4)CC3)sc2c1 [CHEMBL3915656]
- IC50 (UT receptor [1]): 560 nM

SMILES: O=C(NC1CCN(Cc2ccc(OC3CCNCC3)c(Br)c2)CC1)c1cc2cc(Br)ccc2s1 [CHEMBL3915670]
- IC50 (UT receptor [1]): 86 nM

SMILES: O=C(NC1CCN(Cc2ccc(OC3CCNCC3)c(Br)c2)CC1)c1cnccn1 [CHEMBL3920751]
- IC50 (UT receptor [1]): 610 nM

SMILES: O=C(NC1CCN(Cc2ccc(OC3CCNCC3)c(Br)c2)CC1)c1cc2cc(F)ccc2s1 [CHEMBL3924660]
- IC50 (UT receptor [1]): 53 nM

SMILES: O=C(NC1CCN(Cc2ccc(OC3CCNCC3)c(Br)c2)CC1)c1ccco1 [CHEMBL3942137]
- IC50 (UT receptor [1]): 770 nM

SMILES: O=C(NC1CCN(Cc2ccc(OC3CCNCC3)c(Br)c2)CC1)c1cc2cc(-c3ccccc3)ccc2s1 [CHEMBL3949719]
- IC50 (UT receptor [1]): 310 nM

SMILES: COc1ccc2sc(C(=O)NC3CCN(Cc4ccc(OC5CCNCC5)c(Br)c4)CC3)cc2c1 [CHEMBL3957806]
- IC50 (UT receptor [1]): 100 nM

SMILES: Cc1ccc2sc(C(=O)NC3CCN(Cc4ccc(OC5CCNCC5)c(Br)c4)CC3)cc2c1 [CHEMBL3968841]
- IC50 (UT receptor [1]): 74 nM

SMILES: N#Cc1ccc2sc(C(=O)NC3CCN(Cc4ccc(OC5CCNCC5)c(Br)c4)CC3)cc2c1 [CHEMBL3977330]
- IC50 (UT receptor [1]): 25 nM

SMILES: O=C(NC1CCN(Cc2ccc(OC3CCNCC3)c(Br)c2)CC1)c1cccs1 [CHEMBL3979822]
- IC50 (UT receptor [1]): 130 nM

SMILES: COc1cccc(-c2ccc3cc(C(=O)NC4CCN(Cc5ccc(OC6CCNCC6)c(Br)c5)CC4)sc3c2)c1 [CHEMBL3987058]
- IC50 (UT receptor [1]): 87 nM

- β-arrestin recruitment-based assay Emax (UT receptor [2]; [9]): 4.85
- EC50 (UT receptor [2]; [10]): 89.7 nM
- agonist behaviour in calcium assay (UT receptor [3]): full potent agonist
- Calcium assay Emax (UT receptor [3]; [11]): 5.62
- EC50 (UT receptor [3]; [12]): 7390 nM
SMILES: C=CC(C)(C)c1c(O)cc(O)c2c(=O)c(O)c(-c3cc(O)c4c(c3)C=CC(C)(C)O4)oc12 [Compound 1]
- glucose consumption (HepG2 cells [4]; 48 h total glucose consumption): significantly accelerate 48 h total glucose consumption; also recorded: promote glucose utilization
- lactic acid release (HepG2 cells [5]): reduced lactic acid production
- cell viability (HepG2 cells [6]): did not affect; also recorded: without obvious cytotoxic effects

SMILES: O=C(c1ccc([N+](=O)[O-])o1)N1CCN(c2ccc([N+](=O)[O-])cc2)CC1 [Compound 2]
- EC50 (UT receptor [2]): 37 nM
- β-arrestin recruitment-based assay Emax (UT receptor [2]; [9]): 2.40
- EC50 (UT receptor [3]): 10200 nM
- Calcium assay Emax (UT receptor [3]; [11]): 4.08
- glucose consumption (HepG2 cells [4]; 48 h total glucose consumption): no significant differences
- lactic acid release (HepG2 cells [5]): no significant differences
- cell viability (HepG2 cells [6]): no significant differences

- β-arrestin recruitment-based assay Emax (UT receptor [2]; [9]): 3.26
- EC50 (UT receptor [2]; [10]): 44.8 nM
- agonist behaviour in calcium assay (UT receptor [3]): weak activity
- Calcium assay Emax (UT receptor [3]; [11]): 2.37
- EC50 (UT receptor [3]; [12]): 10600 nM
SMILES: O=C(NCCc1cccs1)C1(c2ccccc2)CCCC1 [Compound 3]
- glucose consumption (HepG2 cells [4]; at higher concentrations (10^−6 M, 10^−5 M)): significantly increased glucose consumption
- lactic acid release (HepG2 cells [5]): reduced lactic acid production
- cell viability (HepG2 cells [6]): significantly reduced cell viability

- β-arrestin recruitment-based assay Emax (UT receptor [2]; [9]): 8.32
- Calcium assay Emax (UT receptor [3]; [11]): 5.27
SMILES: CC(C)[C@H](NC(=O)[C@@H]1CSSC[C@H](NC(=O)[C@H](CC(=O)O)NC(=O)[C@@H]2CCCN2C(=O)[C@@H](NC(=O)[C@@H](N)CCC(=O)O)[C@@H](C)O)C(=O)N[C@@H](Cc2ccccc2)C(=O)N[C@@H](Cc2c[nH]c3ccccc23)C(=O)N[C@@H](CCCCN)C(=O)N[C@@H](Cc2ccc(O)cc2)C(=O)N1)C(=O)O [U-II, urotensin-II]
- whole-body glucose tolerance ([7]; high-fat-diet-fed mice): improves whole-body glucose tolerance
- glucose tolerance ([7]; obese mice): improved glucose tolerance
- glucose consumption in vitro [8]: increases glucose consumption

SMILES: Cc1cc(NC(=O)NCCN2CCC(O)(Cc3ccccc3)CC2)c2ccccc2n1 [palosuran]
- effect of palosuran preincubation on compound-induced intracellular calcium mobilization (UT receptor [3]; palosuran 10^−7 M, with Compounds 1, 2, 3): specifically reduced the increase in intracellular calcium mobilization
